Measured values taken from PubChem BioAssay (NCI).
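Assay format: 96-well plates, 48-hour exposure. GI50: concentration for 50% inhibition of growth. At the TGI there is no net growth.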

Columns and labels:
Test in all cases: NCI tumour cell line growth inhibition, 48 h
[1] = test system: A498 renal
[2] = test system: EKVX NSCLC
[3] = test system: SK-MEL-28 melanoma
[4] = test system: HOP-92 NSCLC
[5] = test system: OVCAR-8 ovarian
[6] = test system: KM12 colon
[7] = test system: SF-295 CNS
[8] = test system: SN12C renal
[9] = test system: SW-620 colon
[10] = test system: SF-268 CNS

SMILES	GI50 [1] [µM]	TGI [1] [µM]	GI50 [2] [µM]	TGI [2] [µM]	GI50 [3] [µM]	TGI [3] [µM]	GI50 [4] [µM]	TGI [4] [µM]	GI50 [5] [µM]	TGI [5] [µM]	GI50 [6] [µM]	TGI [6] [µM]	GI50 [7] [µM]	TGI [7] [µM]	GI50 [8] [µM]	TGI [8] [µM]	GI50 [9] [µM]	TGI [9] [µM]	GI50 [10] [µM]	TGI [10] [µM]
CNC(=O)c1nn(C)c2c1C(C)(C)Cc1cnc(Nc3ccc(N4CCN(C)CC4)cc3)nc1-2	0.139	0.861	1.93	> 10	2.32	> 10	0.174	> 2.35	3.17	> 10	0.347	> 10	1.09	> 10	0.705	> 10	0.608	> 10	1.34	> 10
CC(=O)O[C@H]1CCc2c(cc(N)c3c2C(=O)C[C@]2(C)C([C@H](C)CCCC(C)C)CCC32C)C1(C)C (stereo not given in full)	–	> 100	–	> 100	–	> 100	–	> 100	–	> 100	–	> 100	–	> 100	–	> 100	–	> 100	–	> 100
CC(=O)OCC1OC(N2C(=O)C(=O)c3ccccc32)C(OC(C)=O)C(OC(C)=O)C1OC(C)=O (stereo not given)	–	> 100	–	> 100	–	> 100	–	> 100	–	> 100	–	> 100	–	> 100	–	> 100	–	> 100	–	> 100
CCOC(=O)c1cc2c3c(c(O)c(OC)c2s1)N(C(=O)c1cc2c4c(c(O)c(OC)c2s1)N(C(C)=O)CC4)CC3	–	> 100	–	> 100	–	> 100	–	> 100	–	> 100	–	> 100	–	> 100	–	> 100	–	> 100	–	> 100
CCNC(=O)COc1ccc(Cl)cc1Cl	–	> 100	–	> 100	–	> 100	–	> 100	–	> 100	–	> 100	–	> 100	–	> 100	–	> 100	–	> 100
CC(C)CCC1(CCN)C(=O)NC(=O)NC1=O	–	> 100	–	> 100	–	> 100	–	> 100	–	> 100	–	> 100	–	> 100	–	> 100	–	> 100	–	> 100
O=c1c2cc(Br)ccc2nc(CCl)n1-c1ccc(O)c([N+](=O)[O-])c1	–	90.2	–	31.4	–	32.3	–	56.6	–	42.2	–	39.1	–	31.5	–	36	–	35.2	–	44
Cc1cc(N(CCC#N)CCC#N)ccc1/C=C(\NC(=O)/C=C/c1ccccc1)C(=O)NN	–	> 100	–	> 100	–	> 100	–	63.7	–	> 100	–	> 100	–	> 95.6	–	> 100	–	> 100	–	> 100
CSC(=S)N/N=C/c1nccc2ccccc12	–	13.6	–	12.8	–	> 79.8	–	6.36	–	4.96	–	15.6	–	8.54	–	12.7	–	18.8	–	9.65
COc1ccc2[nH]c3c(c2c1)[C@H](C)C[C@@H]1C(=O)N(c2ccccc2)C(=O)[C@H]31	–	64.9	–	> 100	–	> 100	–	42.6	–	37.8	–	41.9	–	70.9	–	58.6	–	> 100	–	63.1
Cc1c(C(=O)O)oc2ccc([N+](=O)[O-])cc12	–	> 100	–	> 100	–	> 100	–	> 100	–	> 100	–	> 100	–	> 100	–	> 100	–	> 100	–	> 100
CN(C)C(=O)O[C@H]1CN[C@H](C#Cc2cc3ncnc(Nc4ccc(OCc5cccc(F)c5)c(Cl)c4)c3s2)C1	4.19	23.3	1.77	> 23	> 25	> 25	1.77	19.4	7.58	> 25	7.37	> 25	> 20	> 25	5.64	> 25	> 25	> 25	5.41	> 25
O=C(O)c1ccccc1/C=N/N=C1c2ccccc2-c2ccccc21	–	> 100	–	> 100	–	> 100	–	> 100	–	> 100	–	58.7	–	61	–	> 100	–	> 100	–	77.1
